Measured values published in US11147815B2, “Compositions and methods for treating diseases associated with uncontrolled inflammatory responses” (SF17 THERAPEUTICS, INC., priority 2018, dated 2021).

How the values were obtained:
TRIM8 = target: T1, TRIM8 (Homo sapiens, UniProt Q9BZR9); assay: Cell-based screen for TRIM8 inhibition: CXCL9, CXCL10 and CXCL11 accumulation in IFN-γ-stimulated THP-1 cells; settings: for Normalized Average of IP-10/CXCL10 / Normalized Average of MIG/CXCL9 / Normalized Average of I-TAC/CXCL11 / Effect on inflammatory response (CXCL9, CXCL10, CXCL11 after IFN-γ): THP-1 cells; for Normalized Average of IP-10/CXCL10 / Normalized Average of MIG/CXCL9 / Normalized Average of I-TAC/CXCL11: 10 µM compound 4 hours, then 200 U human IFN-γ, 12 hours, flow cytometer; for Normalized Average of IP-10/CXCL10 / Normalized Average of MIG/CXCL9: degree of change from control (<1 inhibition, >1 enhancement), triplicate; for Normalized Average of I-TAC/CXCL11: degree of change from control, high background in read-out; for Effect on inflammatory response (CXCL9, CXCL10, CXCL11 after IFN-γ) / TRIM8 inhibitor or enhancer activity found on testing: summary in words; for TRIM8 inhibitor or enhancer activity found on testing: Example 4
T1 construct: 20,000 THP-1 cells; endogenous in cells; host or cells: THP-1
T1 sequence (Q9BZR9 1-551): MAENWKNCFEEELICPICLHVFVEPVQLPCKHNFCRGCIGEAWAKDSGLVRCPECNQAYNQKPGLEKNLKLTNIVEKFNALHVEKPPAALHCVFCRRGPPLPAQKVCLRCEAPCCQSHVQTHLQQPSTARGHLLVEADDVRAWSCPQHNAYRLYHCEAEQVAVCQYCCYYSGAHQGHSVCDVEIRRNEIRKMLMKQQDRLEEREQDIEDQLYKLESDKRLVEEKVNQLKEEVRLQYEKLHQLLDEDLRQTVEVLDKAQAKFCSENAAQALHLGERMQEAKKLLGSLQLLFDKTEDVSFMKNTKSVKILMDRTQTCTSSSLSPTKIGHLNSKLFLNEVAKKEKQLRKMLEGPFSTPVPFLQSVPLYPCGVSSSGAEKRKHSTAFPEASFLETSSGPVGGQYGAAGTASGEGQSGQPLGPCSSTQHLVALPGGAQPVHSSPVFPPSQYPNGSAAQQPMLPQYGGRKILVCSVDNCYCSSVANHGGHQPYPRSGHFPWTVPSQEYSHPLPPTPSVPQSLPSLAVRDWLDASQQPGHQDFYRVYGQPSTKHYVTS
Experimental: (§1) A library of small molecule compounds comprising an E2-RING domain or a RING-RING domain was screen for TRIM8 inhibition in a cell-based assay. 20,000 THP-1 cells (a human myeloid cell line which imitates human monocyte cell inflammatory behavior and responds to IFN-γ stimulation by expressing […] CXCL9, CXCL10 and CXCL11) were incubated with […] of each compound (dissolved in DMSO) for 4 hours, then stimulated with 200 U (units) of human IFN-γ. The effect of the stimulation as measured by changes in accumulation levels of the cytokines CXCL9, CXCL10 and CXCL11 in extracellular fluid was determined by flow cytometer after 12 hours and compared to control (IFN-γ stimulation with no compound).
Each compound is identified by its ChemDiv catalog number.
Values in Table 1 are reported as degree of change from the control state. Values less than 1 indicate inhibition of cytokine response, and values greater than 1 indicate enhancement of cytokine response. Smaller values indicate a higher degree of inhibition. Values closer to zero indicate profound inhibition of cytokine response, and thus significant suppression of inflammatory responses conferred via inhibition of TRIM8 by the tested compounds. CXCL11 values are higher due to a high background in their read-out (relatively high CXCL11 values indicate […]). Standard errors reflect the degree of variation seen in the triplicate tests for each compound.

THP-1 cells = assay: Cell count in the THP-1 screening assay; format: cell-based, human; settings: 10 µM compound, IFN-γ stimulation, normalized to control
Experimental: as §1

## COc1ccc(Sc2ccc(=O)n(-c3ccc(C(=O)NCCCc4ccccc4)cc3)n2)cc1 [Compound 88, 4-{3-[(4-methoxyphenyl)sulfanyl]-6-oxo-1,6-dihydropyridazin-1-yl}-N-(3-phenylpropyl)benzamide]
TRIM8
  Normalized Average of IP-10/CXCL10: 0.127
  Normalized Average of MIG/CXCL9: 0.019
  Normalized Average of I-TAC/CXCL11: 0.744
  Effect on inflammatory response (CXCL9, CXCL10, CXCL11 after IFN-γ): significant inhibition of inflammatory response
  TRIM8 inhibitor or enhancer activity found on testing: highly potent TRIM8 inhibitor
THP-1 cells
  Average Normalized Cell Count: 0.837

## COc1ccc(-c2n[nH]c3c2C(c2ccccc2)C2=C(CC(C)(C)CC2=O)N3)cc1 (stereo not drawn) [Compound 76, 3-(4-methoxyphenyl)-7,7-dimethyl-4-phenyl-1H,4H,5H,6H,7H,8H,9H-pyrazolo[3,4-b]quinolin-5-one]
TRIM8
  Normalized Average of IP-10/CXCL10: 0.352
  Normalized Average of MIG/CXCL9: 0.085
  Normalized Average of I-TAC/CXCL11: <LLOD
  Effect on inflammatory response (CXCL9, CXCL10, CXCL11 after IFN-γ): significant inhibition of inflammatory response
  TRIM8 inhibitor or enhancer activity found on testing: powerful TRIM8 inhibitor
THP-1 cells
  Average Normalized Cell Count: 1.196

## CCc1cccc2c(C(CC(=O)N3CCN(c4ccc([N+](=O)[O-])cc4)CC3)c3cccc4c3OCO4)c[nH]c12 (stereo not drawn) [Compound 130, 3-(2H-1,3-benzodioxol-4-yl)-3-(7-ethyl-1H-indol-3-yl)-1-[4-(4-nitrophenyl)piperazin-1-yl]propan-1-one]
TRIM8
  Normalized Average of IP-10/CXCL10: 0.794
  Normalized Average of MIG/CXCL9: 7.574
  Normalized Average of I-TAC/CXCL11: 0.806
  Effect on inflammatory response (CXCL9, CXCL10, CXCL11 after IFN-γ): significant enhancement of inflammatory response
  TRIM8 inhibitor or enhancer activity found on testing: potent TRIM8 enhancer
THP-1 cells
  Average Normalized Cell Count: 1.135

## COc1ccc(N2CCN(C(=O)c3cc4ccc5cccnc5c4[nH]3)CC2)cc1 [Compound 81, 1-(4-methoxyphenyl)-4-{1H-pyrrolo[3,2-h]quinoline-2-carbonyl}piperazine]
TRIM8
  Normalized Average of IP-10/CXCL10: 0.334
  Normalized Average of MIG/CXCL9: 0.138
  Normalized Average of I-TAC/CXCL11: 0.617
  Effect on inflammatory response (CXCL9, CXCL10, CXCL11 after IFN-γ): significant inhibition of inflammatory response
  TRIM8 inhibitor or enhancer activity found on testing: strong inhibitor of TRIM8
THP-1 cells
  Average Normalized Cell Count: 1.070

## O=C(NCCCc1ccccc1)c1n[nH]c2c1CN(C(=O)c1cc(F)ccc1F)CC2 [Compound 120, 5-(2,5-difluorobenzoyl)-N-(3-phenylpropyl)-1H,4H,5H,6H,7H-pyrazolo[4,3-c]pyridine-3-carboxamide]
TRIM8
  Normalized Average of IP-10/CXCL10: 0.468
  Normalized Average of MIG/CXCL9: 0.188
  Normalized Average of I-TAC/CXCL11: 0.426
  Effect on inflammatory response (CXCL9, CXCL10, CXCL11 after IFN-γ): significant inhibition of inflammatory response
  TRIM8 inhibitor or enhancer activity found on testing: TRIM8 inhibitor
THP-1 cells
  Average Normalized Cell Count: 0.960

## COc1ccc(CN2C(=O)NC(=O)/C(=C\c3cccc4ccccc34)C2=O)cc1 [Compound 17, (5E)-1-[(4-methoxyphenyl)methyl]-5-[(naphthalen-1-yl)methylidene]-1,3-diazinane-2,4,6-trione]
TRIM8
  Normalized Average of IP-10/CXCL10: 3.640
  Normalized Average of MIG/CXCL9: 2.545
  Normalized Average of I-TAC/CXCL11: 4.410
  Effect on inflammatory response (CXCL9, CXCL10, CXCL11 after IFN-γ): significant enhancement of inflammatory response
  TRIM8 inhibitor or enhancer activity found on testing: potent TRIM8 enhancer
THP-1 cells
  Average Normalized Cell Count: 1.435
